Columns and labels:
[1] = tested on: PKG in SW480 colon cancer cells; experiment: PKG activity assay on lysates of drug-treated SW480 cells; format: cell-based, human; conditions: SW480, 48 hrs, with and without added cGMP
Excerpt: That sequence is known and described in the literature below. […] One way to bind the PDE5 sequences to a solid phase is to express those sequences as a fusion protein of the PDE5 sequence and one member of an amino acid binding pair, and chemically link the other member of that amino acid binding pair to a solid phase (e.g., beads). One binding pair that can be used is glutathione S-transferase (“GST”) and glutathione (“GSH”), with the GST being expressed as a fusion protein with the PDE5 sequence described above, and the GSH bound covalently to the solid phase. In this fashion, the PDE5 sequence/GST fusion protein can be bound to a solid phase simply by passing a solution containing the fusion protein over the solid phase, as described below.
To assay a liquid sample believed to contain PKG using the PDE5-bound solid phase described above, the sample and the solid phase are mixed with phosphorylation buffer containing ^32P-γ-ATP. The solution is incubated for 30 minutes at 30° C. to allow for phosphorylation of the PDE5 sequence by PKG to occur, if PKG is present. […]
For each control or drug cell lysate sample to be evaluated, the reaction is started by adding phosphorylation buffer containing 10 μCi ^32P-γ-ATP solution (200 μM ATP, 4.5 mM MgCl; 5 mM KH2PO4; 5 mM K2HPO4;) to each mixture. […]

[2] = tested on: β-catenin and PKG in SW480 cells; experiment: Western blot of β-catenin and PKG in SW480 cells; format: cell-based, human
Description: SW480 cells treated with exisulind as described previously are harvested from the microfuge tubes by rinsing once with ice-cold PBS. The cells are lysed by modified RIPA buffer for 15 minutes with agitation. The cell lysate is spun down in a cold room. The supernatants are transferred to fresh microcentrifuge tubes immediately after spinning. BioRad DC Protein Assay (Temecula, CA) is performed to determine the protein concentrations in samples. The samples are normalized for protein concentration, as described above.
50 μg of each sample is loaded to 10% SDS gel. SDS-PAGE is performed, and the proteins then are transferred to a nitrocellulose membrane. The blotted nitrocellulose membrane are blocked in freshly prepared TBST containing 5% nonfat dry milk for one hour at room temperature with constant agitation.
A goat-anti-PKG primary antibody is diluted to the recommended concentration/dilution in fresh TBST/5% nonfat dry milk. The nitrocellulose membrane is placed in the primary antibody solution and incubated one hour at room temperature with agitation. The nitrocellulose membrane is washed three times for ten minutes each with TBST. […]
This observation was made by culturing SW480 cells with either 200, 400 or 600 μM exisulind or vehicle (0.1% DMSO). […] Immuno-reactive protein can be detected by Western blot. […]

[3] = Safety evaluation in exisulind clinical trials; format: in vivo
Description: In these exisulind trials and several others involving the drug in other indications, safety was evaluated by monitoring adverse events (AEs), clinical laboratory tests (hematology, serum chemistry, and urinalysis), vital signs (blood pressure, pulse rate, respiratory rate, temperature, and weight), physical examination, and upper endoscopy.

CC1=C(CC(=O)O)c2cc(F)ccc2/C1=C\c1ccc(S(C)(=O)=O)cc1 [Exisulind, 5-fluoro-2-methyl-1-(p-methylsulfonylbenzylidene)-3-indenylacetic acid]
PKG activity relative to control [1]: causes PKG activity to increase in a dose-dependent manner
reduction of β-catenin expression compared to control ([2]; SW480, 200, 400 or 600 μM, 48 hours, Western blot): 50%
PKG level by Western blot ([2]; SW480, 48 hours): increase of PKG
clinical safety ([3]; human, in vivo): No outstanding safety issues have been demonstrated
dose-limiting adverse events ([3]; human, in vivo): elevations in liver function tests
apoptosis rates in polyp and normal colonic tissues ([3]; paired biopsies in APC patients): increased apoptosis rates in polyp, but not normal colonic tissues
